The target in one data set is Kallikrein-1 (Homo sapiens, UniProt P06870). In words: Inhibition of recombinant human N-terminal his-tagged KLK1 (19 to 262 residues) expressed in baculovirus infected sf9 insect cells using R110 labelled GSK3162232A as substrate measured every 30 secs intervals for 5 mins by Rhodamine110 dye-based fluorescence assay.
Data set [1] deals with T1, Kallikrein-5 (Homo sapiens, UniProt Q9Y337).
T1 sequence (Q9Y337 whole entry): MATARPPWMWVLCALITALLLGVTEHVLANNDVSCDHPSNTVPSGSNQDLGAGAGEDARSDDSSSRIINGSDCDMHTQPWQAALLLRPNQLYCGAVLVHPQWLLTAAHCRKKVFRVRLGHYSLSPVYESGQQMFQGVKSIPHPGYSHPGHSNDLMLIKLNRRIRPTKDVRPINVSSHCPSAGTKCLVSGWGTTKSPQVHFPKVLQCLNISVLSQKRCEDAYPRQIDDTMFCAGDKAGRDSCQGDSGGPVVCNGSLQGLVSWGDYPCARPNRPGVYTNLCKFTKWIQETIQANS
In words: Inhibition of recombinant human FLAG-tagged KLK5 expressed in baculovirus infected sf9 insect cells using (Tos-Gly-Pro-Arg)2[R110].2TFA as substrate measured every 30 secs intervals for 5 mins by Rhodamine110 dye-based fluorescence assay.

A short description of data set [2]: Dissociation constant, pKa of phenol group of the compound by UV spectrophotometric analysis. The format is physicochemical.
Data set [3] has as its target T2, Kallikrein-14 (Homo sapiens) (UniProt Q9P0G3).
T2 sequence (whole entry): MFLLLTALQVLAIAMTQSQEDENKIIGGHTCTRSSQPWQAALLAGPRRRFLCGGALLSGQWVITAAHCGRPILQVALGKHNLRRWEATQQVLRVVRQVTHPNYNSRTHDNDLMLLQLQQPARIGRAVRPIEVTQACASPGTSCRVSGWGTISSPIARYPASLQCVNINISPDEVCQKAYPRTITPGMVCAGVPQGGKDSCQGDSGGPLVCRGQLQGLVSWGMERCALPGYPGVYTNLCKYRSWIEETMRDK
The data set can be described thus: Inhibition of KLK14 (unknown origin) at 100 uM using Boc-Val-Pro-Arg- AMC substrate incubated for 15 mins by fluorescence assay.

Data set [4] deals with T1, Kallikrein-5. In words: Inhibition of KLK5 (unknown origin) using Boc-Val-Pro-Arg-AMC substrate incubated for 15 mins by fluorescence assay.
The species named for a further data set is Homo sapiens. In words: Selectivity ratio of IC50 for recombinant human N-terminal his-tagged KLK1 (19 to 262 residues) to IC50 for recombinant human FLAG-tagged KLK5.
Data set [5] deals with T1, Kallikrein-5. The data set can be described thus: Inhibition of recombinant human KLK5 using S-2288 substrate.
In a further data set the target is Kallikrein-7 (Homo sapiens, UniProt P49862). In words: Inhibition of recombinant human KLK7 using S-2586 substrate.
Chain of Kallikrein-7 (P49862 whole entry): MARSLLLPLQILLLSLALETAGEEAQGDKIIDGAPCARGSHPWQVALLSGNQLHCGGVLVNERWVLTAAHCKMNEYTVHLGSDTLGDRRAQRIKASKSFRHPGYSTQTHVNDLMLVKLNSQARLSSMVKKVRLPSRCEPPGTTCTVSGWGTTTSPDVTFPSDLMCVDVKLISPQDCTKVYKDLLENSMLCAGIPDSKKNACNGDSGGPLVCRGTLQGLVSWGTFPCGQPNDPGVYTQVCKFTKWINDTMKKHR

SMILES strings stand for the structures.

Chain of Kallikrein-1 (P06870 whole entry, the tested form may be a part): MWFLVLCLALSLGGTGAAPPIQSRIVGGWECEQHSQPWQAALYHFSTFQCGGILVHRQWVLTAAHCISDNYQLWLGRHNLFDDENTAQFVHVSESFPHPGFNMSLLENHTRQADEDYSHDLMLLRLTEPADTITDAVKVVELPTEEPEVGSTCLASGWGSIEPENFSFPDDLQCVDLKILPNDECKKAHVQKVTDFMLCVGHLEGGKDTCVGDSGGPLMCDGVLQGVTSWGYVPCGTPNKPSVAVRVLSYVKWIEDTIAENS

Consider `N=C(N)c1ccc(NC(=O)c2ccccc2O)cc1`, for which the IC50 is 12.6 µM on Kallikrein-1 and 6.31 µM at Kallikrein-5 [1]. In data set [2], this compound had a pKa of 6.8.

With `COc1cccc(C(=O)Nc2ccc(C(=N)N)cc2)c1O`, the IC50 was 0.316 µM at Kallikrein-1 and 0.501 µM on Kallikrein-5 [1]. Also, in data set [2], the pKa was found to be 6.6.

Turning to `N=C(N)c1ccc(NC(=O)c2cccc(O)c2O)cc1`, the IC50 at Kallikrein-1 is 3.98 µM; at Kallikrein-5 [1] it was 2.51 µM.

Take `N=C(N)c1ccc(NC(=O)c2cccc(Cl)c2O)cc1`: the values for the IC50 on Kallikrein-1 and on Kallikrein-5 [1] were 0.631 µM and 2.51 µM, respectively. This compound also yielded a pKa in data set [2] of 5.

Regarding `O=C1Oc2ccccc2CC1C(=O)Oc1nccc2ccccc12` (stereo unspecified), the inhibition in data set [3] is 61%. Further, the IC50 at Kallikrein-5 [4] is 7 µM.

Consider `N=C(N)c1ccc(NC(=O)c2ccccc2O)c(F)c1`, for which the values for the IC50 at Kallikrein-1 and on Kallikrein-5 [1] were 3.16 µM and 2.51 µM, respectively.

In the case of `COc1cccc(C(=O)Nc2ccc(C(=N)N)c(F)c2)c1O`, the IC50 is 0.251 µM on Kallikrein-1 and 1 µM on Kallikrein-5 [1].

With `N=C(N)c1ccc(NC(=O)c2ccccc2O)cc1F`, the IC50 on Kallikrein-1 was 12.6 µM; on Kallikrein-5 [1], 20 µM.

Regarding `N=C(N)c1ccc(NC(=O)C2CCCNC2=O)cc1` (stereo unspecified), in the data set listed under Homo sapiens, the Ratio IC50 amounted to 100. For the same compound, the figures for the IC50 at Kallikrein-1 and on Kallikrein-5 [1] were 501 µM and 10 µM, respectively.

Consider `N=C(N)c1ccc(NC(=O)N2CCCNC2=O)cc1`, for which the Ratio IC50 in the data set filed under Homo sapiens was found to be 100. The half-maximal inhibitory concentration (IC50) was 631 µM on Kallikrein-1 and 10 µM at Kallikrein-5 [1].

For `Cn1c(C(=O)Nc2ccc(C(=N)N)cc2)nc2ccccc21`, in the data set listed under Homo sapiens, the Ratio IC50 is 10. The half-inhibitory concentration (IC50) at Kallikrein-1 is 200 µM; on Kallikrein-5 [1], 12.6 µM.

In the case of `Cc1cccc(C(=O)Nc2ccc(C(=N)N)cc2)c1O`, the IC50 at Kallikrein-1 was 3.16 µM; at Kallikrein-5 [1] it was 7.94 µM. Further, the pKa in data set [2] turned out to be 6.8.

For the compound `Cc1cc(C(=N)N)ccc1NC(=O)c1ccccc1O`, the IC50 is 5.01 µM at Kallikrein-1 and 12.6 µM at Kallikrein-5 [1].

In the case of `COc1cccc(C(=O)Nc2ccc(C(=N)N)c(Cl)c2)c1O`, the IC50 on Kallikrein-1 is 1.26 µM; at Kallikrein-5 [1], 10 µM.

With `CCOc1cc2c(=O)oc(-c3ccccc3OC)nc2cc1OC`, the IC50 is 0.2 µM at Kallikrein-5 [5] and 0.048 µM at Kallikrein-7.

Regarding `CCOc1cccc(C(=O)Nc2ccc(C(=N)N)cc2)c1O`, the IC50 on Kallikrein-1 is 0.126 µM; on Kallikrein-5 [1] it was 5.01 µM.

Regarding `Cn1cccc(C(=O)Nc2ccc(C(=N)N)cc2)c1=O`, the results for the half-maximal inhibitory concentration (IC50) on Kallikrein-1 and on Kallikrein-5 [1] were 501 µM and 158 µM, respectively.

What is called IC50 is the midpoint of a concentration-inhibition curve. Usually pKa stands for the pH at which an ionisable group is half protonated. A higher pKa goes with a group that holds its proton tightly. A word on the inhibition: it is the change of the read-out against control, counted positive when it falls. The low end stands for a weak effect, the high end for a strong effect.

(Values after ChEMBL document CHEMBL4422656, “Kallikrein 5 inhibitors identified through structure based drug design in search for a treatment for Netherton Syndrome” (Bioorg Med Chem Lett, 2019).)
